This note sets out measurements from ChEMBL document CHEMBL1121501, “Synthesis and preliminary binding studies of 4,4-ditritio-(-)-nicotine of high specific activity” (J Med Chem, 1980).

Assay [1] is filed under the species Rattus norvegicus.
Description: Compound was evaluated for the binding affinity at crude mitochondrial fraction of rat whole brain at 7 nmol/mg of protein.
The species named for assay [2] is Rattus norvegicus. The source holds these as a separate data set.
Description: Compound was evaluated for the binding affinity at crude mitochondrial fraction of rat whole brain at 13 fmol of binding sites/mg of protein

As for `CN1CCC[C@H]1c1cccnc1`, the Ka amounted to 4400 M⁻¹ in assay [1] and 4.7e+06 M⁻¹ in assay [2].
